Among the test systems are MDA-N; DU-145 prostate; HOP-92 NSCLC; HOP-62 NSCLC; A549 NSCLC; HT29 colon; UACC-62 melanoma; MDA-MB-435; SF-295 CNS; MCF7 breast; LOX IMVI melanoma; SNB-75 CNS; RPMI-8226 leukemia; K-562 leukemia; T-47D breast; SK-OV-3 ovarian; NCI-H460 lung; SK-MEL-2 melanoma; BT-549 breast; NCI-H23 lung.
Holding throughout (assay): inhibition of tumour cell growth, NCI panel, 48 h

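Assay format: 96-well plates, 48-hour exposure. TGI denotes the concentration required for complete inhibition of growth.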 Where a SMILES comes first, the peptide text is derived from it. The star is where a group is joined. Cbz = O=C(OCc1ccccc1)*

As to `O=[N+]([O-])/C=C/COCc1cc2c(cc1Br)OCO2`, the TGI with MDA-N came out at 32.8 µM; in the test with DU-145 prostate, 35.5 µM; with HOP-92 NSCLC, 65.3 µM; in the test with HOP-62 NSCLC, 41.9 µM; in the test with A549 NSCLC, 38.5 µM; in the test with HT29 colon, 45.4 µM. Further, the TGI in the test with UACC-62 melanoma was 30.1 µM; in the test on MDA-MB-435 it was 27.1 µM; in the test on SF-295 CNS, above 100 µM; with MCF7 breast, 33.5 µM; in the test with LOX IMVI melanoma it was above 100 µM; in the test on SNB-75 CNS it was 31.7 µM. Besides, the TGI is above 100 µM in the test with RPMI-8226 leukemia; above 100 µM in the test on K-562 leukemia; 41.6 µM with T-47D breast; above 100 µM with SK-OV-3 ovarian; above 100 µM in the test on NCI-H460 lung.

On to `COc1ccc([C@H](NC(=O)c2ccccc2)[C@@H](O)C(=O)O[C@H]2C[C@@]3(O)C(OC(=O)c4ccccc4)C4[C@](C)(C(=O)[C@H](OC(C)=O)C(=C2C)C3(C)C)[C@@H](O)C[C@H]2OC[C@@]42OC(C)=O)cc1` (some centres not stated), for which the TGI in the test on MDA-N is above 10 µM; with SK-MEL-2 melanoma it was above 10 µM; with DU-145 prostate, 0.00657 µM; in the test with BT-549 breast it was above 10 µM; in the test with HOP-92 NSCLC, above 10 µM; in the test on A549 NSCLC, above 10 µM. The TGI with HT29 colon was 0.0656 µM; in the test on UACC-62 melanoma, above 10 µM; in the test on SF-295 CNS it was 2.92 µM; in the test on MCF7 breast it was above 10 µM; in the test on LOX IMVI melanoma it was above 10 µM; with SNB-75 CNS it was 0.0589 µM. Further, the TGI with RPMI-8226 leukemia, in the test on K-562 leukemia, in the test on T-47D breast, in the test on NCI-H460 lung and in the test with NCI-H23 lung was above 10 µM throughout.

In the case of `CC1=NN(C(=O)c2ccccc2O)C(c2ccccc2Cl)C1C(=O)Nc1ccccc1` (configuration not stated), the TGI is above 100 µM with MDA-N; above 100 µM with SK-MEL-2 melanoma; above 43.5 µM in the test on DU-145 prostate; above 100 µM in the test on HOP-92 NSCLC; above 100 µM with HOP-62 NSCLC; above 100 µM in the test with A549 NSCLC. For the same molecule, the TGI in the test on HT29 colon is above 100 µM; with UACC-62 melanoma, above 51.2 µM; with MDA-MB-435 it was above 100 µM; in the test on SF-295 CNS, above 100 µM; in the test on MCF7 breast, above 100 µM; in the test with LOX IMVI melanoma it was above 36.5 µM. Also, the TGI in the test with RPMI-8226 leukemia is above 90.8 µM; in the test on K-562 leukemia, above 100 µM; with T-47D breast it was above 100 µM; in the test on SK-OV-3 ovarian, above 100 µM; with NCI-H460 lung, above 53.1 µM; in the test on NCI-H23 lung it was above 100 µM.

On to `Cc1cc(C)c(NS(=O)c2cccc(Cl)c2)c(C)c1` (configuration not stated), for which the TGI in the test on MDA-N, in the test with DU-145 prostate, with BT-549 breast, in the test with HOP-92 NSCLC, in the test with HOP-62 NSCLC and with A549 NSCLC was above 100 µM each time. Also, the TGI in the test on HT29 colon, in the test on MDA-MB-435, in the test with SF-295 CNS, with MCF7 breast, with RPMI-8226 leukemia and with K-562 leukemia was above 100 µM each time. The TGI in the test with NCI-H460 lung and with NCI-H23 lung was above 100 µM each time.

In the case of `CCOC(=O)C(CC(=O)OC)NC(=O)C(CC(=O)OC)NC(=O)C(CC(=O)OC)NC(=O)C(CC(=O)OC)NC(=O)OCc1ccccc1` (configuration not stated) (Cbz-D(OMe)D(OMe)D(OMe)D(OMe)-OEt; configuration not given here), the TGI with MDA-N, with SK-MEL-2 melanoma, in the test with BT-549 breast, in the test on HOP-92 NSCLC, in the test on HOP-62 NSCLC and with A549 NSCLC was above 100 µM each time. The TGI with HT29 colon, with UACC-62 melanoma, with MCF7 breast, with SNB-75 CNS, with RPMI-8226 leukemia and with K-562 leukemia was above 100 µM throughout. Moreover, the TGI in the test on T-47D breast, in the test on NCI-H460 lung and with NCI-H23 lung was above 100 µM throughout.

On to `O=C(Cc1ccccc1)NNc1nc(NNC(=O)c2ccncc2)nc(Nc2ccc(Cl)cc2)n1`, for which the TGI in the test with MDA-N, in the test with DU-145 prostate, in the test with BT-549 breast, with HOP-92 NSCLC, in the test on HOP-62 NSCLC and with A549 NSCLC was above 10 µM each time. Also, the TGI in the test on UACC-62 melanoma, with MCF7 breast, with LOX IMVI melanoma, in the test on SNB-75 CNS, with RPMI-8226 leukemia and in the test with K-562 leukemia was above 10 µM in each case. The TGI with T-47D breast, in the test on SK-OV-3 ovarian and with NCI-H23 lung was above 10 µM each time.

In the case of `O=C(CC(C(=O)c1cccs1)c1ccsc1)c1ccco1` (configuration not stated), the TGI in the test on MDA-N was above 100 µM; in the test with DU-145 prostate it was above 100 µM; in the test with HOP-92 NSCLC, above 100 µM; in the test on HOP-62 NSCLC, above 100 µM; with A549 NSCLC it was 42.9 µM; with HT29 colon, 29.7 µM. Also, the TGI is 62.1 µM with UACC-62 melanoma; 40.6 µM with MDA-MB-435; above 100 µM in the test on SF-295 CNS; 42.3 µM in the test with MCF7 breast; above 100 µM in the test on LOX IMVI melanoma; 84.4 µM in the test on SNB-75 CNS. The TGI in the test with RPMI-8226 leukemia is above 100 µM; with T-47D breast, 80.3 µM; with SK-OV-3 ovarian, above 100 µM; in the test with NCI-H460 lung it was 81.9 µM; with NCI-H23 lung, 49.7 µM.

In the case of `CCOC(=O)C(=CNC(=S)Nc1c(CC)cccc1CC)C(=O)OCC`, the TGI with MDA-N, with SK-MEL-2 melanoma, in the test on DU-145 prostate, in the test on HOP-92 NSCLC, with HOP-62 NSCLC and with A549 NSCLC was above 100 µM in each case. For the same molecule, the TGI in the test on HT29 colon, in the test on UACC-62 melanoma, in the test with MDA-MB-435, in the test on SF-295 CNS, in the test on MCF7 breast and with LOX IMVI melanoma was above 100 µM throughout. Moreover, the TGI is 92.6 µM in the test on SNB-75 CNS; above 100 µM in the test on RPMI-8226 leukemia; above 100 µM with K-562 leukemia; above 100 µM in the test on T-47D breast; above 100 µM in the test with SK-OV-3 ovarian; above 100 µM in the test on NCI-H460 lung. Moreover, in the test on NCI-H23 lung, the TGI was above 100 µM.

Values taken from PubChem BioAssay (NCI).
